Data taken from EP0578726B1, “VIRUS INACTIVATION METHOD” (VEGATEC, priority 1991, dated 1992).

What was measured:
[1] = test system: Herpès Simplex Virus II (HSV II); assay: Example II: kinetics of HSV II inactivation, titration on receptor cells; assay type: cell-based; conditions: after 15 minutes of contact, (III) 5 g/l final concentration
Protocol: Herpès Simplex Virus II (HSV II) de l'exemple 1 est incubé avec une solution de (III) à 5 g/l en concentration finale dans son milieu de culture.
Des prélèvements sont effectués à intervalles de temps 5, 10, 15, 30 et 60 minutes, puis titrés pour leur contenu en virus infectieux sur cellules réceptrices en culture.

C 1 estérase = assay: Example VIII: inhibitory capacity of treated C 1 Inactivateur towards C 1 estérase; assay type: biochemical; conditions: 6 h - 24°C, (III) at 6,5 g/l, % of inhibitory activity of purified C 1 Inactivateur without additive at To
Protocol: La protéine a donc été traitée d'une part avec le procédé solvant-détergent, d'autre part avec (III) à une concentration finale de 6,5 g/l pendant 6 h à 24°C, dans le but d'obtenir l'inactivation des virus éventuellement présents dans la matière première.
Le tableau H montre l'influence du traitment d'inactivation virale sur les propriétés inhibitrices du C 1 Ina essayé sur trois enzymes : C 1 estérase, kallicréine, plasmine.
Le témoin est incubé 6 h à 24°C mais ne contient aucun additif inactivant.
L'activité inhibitrice est exprimée en % de l'activité inhibitrice du C 1 Inactivateur purifié sans additif et dosé à To.

[2] = test system: Herpès simplex virus II (HSVII); assay: Example I: inactivation of HSVII suspensions, detection in cell culture; assay type: cell-based; conditions: 6,5 g/l of (III)
Protocol: Herpès simplex virus II (HSVII) est entretenu en culture cellulaire et les suspensions virales obtenues ont une dose infectieuse 50% (DI50) à une dilution de 10⁻⁶.
Les suspensions virales sont mises en contact avec 6,5g/l de (III) pendant 1h, 2h, 4h à 30°C.
Des témoins positifs sont réalisés dans les mêmes conditions d'incubation sans addition de (III).
L'effet virucide de (III) est arrêté par dilution au 1/100e avec du milieu de culture sans virus. La concentration virale atteint alors 10⁴DI50 pour l'effet de dilution.

CCCCCCCNC(=O)OC[C@H]1O[C@H](OC)[C@H](O)[C@@H](O)[C@@H]1O [(III), 6-O-(N-heptylcarbamoyl)méthyl-α-D-glucopyranoside]
activité virale de HSVII [1]: Aucune activité virale de HSVII n'est détectée
Activité anti C 1 estérase (C 1 estérase; essai n° 1): 96,2%
Activité anti C 1 estérase (C 1 estérase; essai n° 2): 100%
inactivation de HSVII ([2]; 30°C, control titre 10⁴DI50): ≥ 4 log
activité virale de HSVII ([2]; contact 1h, 2h, 4h at 30°C, stopped by 1/100 dilution): Aucune activité virale de HSVII n'est détectée
